{"source": "patent US11751567B2", "about": "“Steroidal piperidone derivative, synthesis method, and use thereof” (NORTHWEST A&F UNIVERSITY, priority 2021, dated 2023)", "type_in_all_cases": "in vivo", "key": {"Bemisia tabaci": {"test_system": "Bemisia tabaci", "test": "foliar spray test on cucumber leaf against B. tabaci", "conditions": "168 h, read-out: Corrected mortality (%) B. tabaci", "experimental": "(§1) The toxic activities of the steroidal piperidone derivatives listed in Table 4 against B. tabaci were tested by a foliar spray method. Specific process: A specified amount of a compound to be tested was accurately weighed and dissolved in acetone, and solutions with concentrations of 50 μg/mL and 75 μg/mL were each prepared with a 0.1% of Tween 80 aqueous solution and stored for later use. The pesticide solution was sprayed on the back side of a cucumber leaf, the cucumber leaf was naturally dried, and B. tabaci to be tested were placed on the cucumber leaf. Thiamethoxam was used as a positive control, and acetone was used as a negative control. Several deaths were observed after 7 d of treatment, and the corrected mortality was calculated."}, "rice planthoppers": {"test_system": "rice planthoppers", "test": "foliar spray test against rice planthoppers", "conditions": "72 h, read-out: Corrected mortality (%) rice planthoppers", "experimental": "as §1\nThe toxic activities of the steroidal piperidone derivatives listed in Table 5 against rice planthoppers were tested by a foliar spray method. Imidacloprid was used as a positive control, and acetone was used as a negative control. Several deaths were observed after 3 d of treatment, and the corrected mortality was calculated."}, "Tetranychus truncatus": {"test_system": "Tetranychus truncatus", "test": "slide dipping mortality test on mites", "conditions": "slide dipping, process as for aphids, read-out: Corrected mortality (%) Tetranychus truncatus", "experimental": "(§2) Inhibitory activities of the steroidal piperidone derivatives listed in Tables 1 and 2 against Myzus persicae, Aphis citricola, Brevicoryne brassicae, and wheat aphids were determined through slide-dip method. Specific process: A specified amount of a compound to be tested was accurately weighed and dissolved with acetone as a solvent, and solutions with concentrations of 50 μg/mL and 75 μg/mL were each prepared with a 0.1% Tween-80 aqueous solution, allowed to stand at room temperature for 0.5 h until the sample was completely dissolved, and stored for later use. Then, adult aphids were fixed with double-sided tape on slides with a small brush. One end of the slide with the aphids was immersed in the test solutions for 5 seconds. The excess liquid was absorbed with absorbent paper, and the mortality rates were calculated 24 h after treatment. Acetamiprid was adopted as a positive control, and a 0.1% Tween-80 aqueous solution was adopted as a negative control. and the results are shown in Table 1.\nThe inhibitory activities of the steroidal piperidone derivatives listed in Table 3 on Tetranychus truncatus were tested through slide dipping."}, "Aphis citricola": {"test_system": "Aphis citricola", "test": "slide-dip mortality and LC50 test on aphids (Aphis citricola)", "experimental": "as §2"}, "Myzus persicae": {"test_system": "Myzus persicae", "test": "slide-dip mortality test on aphids (Myzus persicae)", "conditions": "24 h, read-out: Corrected mortality (%) Myzus persicae", "experimental": "as §2"}, "wheat aphids": {"test_system": "wheat aphids", "test": "slide-dip mortality test on aphids (wheat aphids)", "conditions": "24 h, read-out: Corrected mortality (%) Wheat aphid", "experimental": "as §2"}, "Brevicoryne brassicae": {"test_system": "Brevicoryne brassicae", "test": "slide-dip mortality test on aphids (Brevicoryne brassicae)", "conditions": "24 h, read-out: Corrected mortality (%) Brevicoryne brassicae", "experimental": "as §2"}, "[1]": {"conditions": "24 h, read-out: Corrected mortality (%) Aphis citricola"}}}
{"smiles": "C[C@]12CC[C@H](O)CC1=CC[C@@H]1[C@@H]2CC[C@@]2(C)[C@H]1CCC(=O)N2C(=O)c1ccc(C(F)(F)F)cc1", "note": "[Compound (2)-12]", "values": [{"measurement": "mortality at 50 µg/mL", "setting": "Bemisia tabaci", "value": 47.5, "unit": "%"}, {"measurement": "mortality at 75 µg/mL", "setting": "Bemisia tabaci", "value": 58.6, "unit": "%"}, {"measurement": "mortality at 50 µg/mL", "setting": "rice planthoppers", "value": 54, "unit": "%"}, {"measurement": "mortality at 75 µg/mL", "setting": "rice planthoppers", "value": 63, "unit": "%"}, {"measurement": "mortality at 50 µg/mL", "setting": "Tetranychus truncatus; 50 μg/mL", "value": 33.8, "unit": "%"}, {"measurement": "mortality at 75 µg/mL", "setting": "Tetranychus truncatus; 75 μg/mL", "value": 55.5, "unit": "%"}, {"measurement": "mortality at 50 µg/mL", "setting": "Aphis citricola; [1]", "value": 60.7, "unit": "%"}, {"measurement": "mortality at 75 µg/mL", "setting": "Aphis citricola; [1]", "value": 83, "unit": "%"}, {"measurement": "LC50", "setting": "Aphis citricola; read-out: LC50 of inhibitory activity against Aphis citricola", "value": 21.9, "unit": "mg/L"}, {"measurement": "mortality at 50 µg/mL", "setting": "Myzus persicae", "value": 59.1, "unit": "%"}, {"measurement": "mortality at 75 µg/mL", "setting": "Myzus persicae", "value": 79.8, "unit": "%"}, {"measurement": "mortality at 50 µg/mL", "setting": "wheat aphids", "value": 65, "unit": "%"}, {"measurement": "mortality at 75 µg/mL", "setting": "wheat aphids", "value": 84.3, "unit": "%"}, {"measurement": "mortality at 50 µg/mL", "setting": "Brevicoryne brassicae", "value": 61.8, "unit": "%"}, {"measurement": "mortality at 75 µg/mL", "setting": "Brevicoryne brassicae", "value": 82.8, "unit": "%"}]}
